In ChEMBL document CHEMBL1135268, “Design, synthesis and in vitro evaluation of potent, novel, small molecule inhibitors of plasminogen activator inhibitor-1” (Bioorg Med Chem Lett, 2002):

Target: T1, Plasminogen activator inhibitor 1 (Homo sapiens, UniProt P05121)
Test: Inhibitory activity against human plasminogen activator inhibitor-1 (PAI-1) evaluated by chromogenic assay.

T1 sequence (P05121 whole entry): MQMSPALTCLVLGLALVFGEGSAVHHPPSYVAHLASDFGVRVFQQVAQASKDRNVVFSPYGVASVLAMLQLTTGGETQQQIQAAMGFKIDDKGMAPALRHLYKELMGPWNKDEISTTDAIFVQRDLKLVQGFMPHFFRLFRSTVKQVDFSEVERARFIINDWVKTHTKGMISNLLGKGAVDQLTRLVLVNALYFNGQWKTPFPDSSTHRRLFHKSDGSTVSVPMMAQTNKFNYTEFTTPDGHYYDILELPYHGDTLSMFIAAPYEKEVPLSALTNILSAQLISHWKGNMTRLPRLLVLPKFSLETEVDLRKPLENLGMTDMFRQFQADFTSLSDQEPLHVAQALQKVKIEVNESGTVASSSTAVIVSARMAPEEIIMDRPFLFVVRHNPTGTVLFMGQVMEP

Structure (SMILES)	IC50 [nM]
O=C(O)CCCCCCCOc1ccc(NC(=O)c2c(O)c3cccc(-c4cccc5ccccc45)c3[nH]c2=O)cc1	> 50000
O=C(O)CCCCCCCOc1ccc(NC(=O)C2=C(O)CN(Cc3ccccc3)C2=O)cc1	> 50000
O=C(O)CCCCCCCOc1ccc(NC(=O)C2=C(O)C(c3ccccc3)NC2=O)cc1 (stereo not drawn)	49000
O=C(O)CCCCCCCOc1ccc(NC(=O)C2=C(O)C(Cc3ccc(O)cc3)NC2=O)cc1 (stereo not drawn)	> 50000
O=C(O)CCCCCCCOc1ccc(NC(=O)c2c(O)nc3ccc(I)cc3c2O)cc1	2200
O=C(O)CCCCCCCOc1ccc(NC(=O)c2c(O)c3ccccc3[nH]c2=O)cc1	1850
N#Cc1ccc2c(O)c(C(=O)Nc3ccc(OCCCCCCCC(=O)O)cc3)c(=O)[nH]c2c1	900
O=C(O)CCCCCCCOc1ccc(NC(=O)c2c(O)nc3ccc(-c4csc5ccccc45)cc3c2O)cc1	510
O=C(O)CCCCCCCOc1ccc(NC(=O)c2c(O)c3cc(-c4ccc5ccccc5c4)ccc3[nH]c2=O)cc1	670
COC(=O)CCCCCCCOc1ccc(NC(=O)C2=C(O)CN(c3ccc(Cl)cc3)C2=O)cc1	> 50000
COc1ccc(N2CC(O)=C(C(=O)Nc3ccc(OCCCCCCCC(=O)O)cc3)C2=O)cc1	3660
O=C(O)CCCCCCCOc1ccc(NC(=O)c2c(O)nc3ccc([N+](=O)[O-])cc3c2O)cc1	3600
O=C(O)CCCCCCCOc1ccc(NC(=O)C2=C(O)CN(c3ccc4ccccc4c3)C2=O)cc1	4000
Cc1ccc(N2CC(O)=C(C(=O)Nc3ccc(OCCCCCCCC(=O)O)cc3)C2=O)cc1	1950
O=C(O)CCCCCCCOc1ccc(NC(=O)c2c(O)c3c(Cl)cccc3[nH]c2=O)cc1	3000
O=C(O)CCCCCCCOc1ccc(NC(=O)c2c(O)c3cc(-c4ccc(Cl)cc4)ccc3[nH]c2=O)cc1	2000
O=C(O)CCCCCCCOc1ccc(NC(=O)C2=C(O)CN(c3ccc(Br)cc3)C2=O)cc1	1990
Nc1cccc2nc(O)c(C(=O)Nc3ccc(OCCCCCCCC(=O)O)cc3)c(O)c12	4250
O=C(O)CCCCCCCOc1ccc(NC(=O)C2=C(O)CN(c3ccccc3Cl)C2=O)cc1	> 50000
O=C(O)CCCCCCCOc1ccc(NC(=O)C2=C(O)CN(c3ccc([N+](=O)[O-])cc3)C2=O)cc1	4250
O=C(O)CCCCCCCOc1ccc(NC(=O)c2c(O)nc3cc(F)c(F)cc3c2O)cc1	2350

The remaining lines, values ahead:

IC50 [nM]	Structure (SMILES)
1010	O=C(Nc1ccc(OCCCCCCCn2cnnn2)cc1)c1c(O)c2cc(-c3cc4ccccc4s3)ccc2[nH]c1=O
500	O=C(O)CCCCCCCOc1ccc(NC(=O)c2c(O)c3cc(-c4cc5ccccc5s4)ccc3[nH]c2=O)cc1
200	O=C(O)CCCCCCCOc1ccc(/C=c2/[nH]c(=O)/c(=C/c3ccc(NC(=O)c4cccs4)cc3)[nH]c2=O)cc1
30000	COc1ccc(-c2cccc3c(O)c(C(=O)Nc4ccc(OCCCCCCCC(=O)O)cc4)c(=O)[nH]c23)cc1
> 20000	Nc1ccc2nc(O)c(C(=O)Nc3ccc(OCCCCCCCC(=O)O)cc3)c(O)c2c1
890	Cc1ccc(N2CC(O)=C(C(=O)Nc3ccc(OCCCCCCCn4cnnn4)cc3)C2=O)cc1
> 50000	CC1C(O)=C(C(=O)Nc2ccc(OCCCCCCCC(=O)O)cc2)C(=O)N1c1ccccc1 (stereo not drawn)
1950	O=C(O)CCCCCCCOc1ccc(NC(=O)c2c(O)nc3ccc(Cl)cc3c2O)cc1
> 50000	COc1ccccc1N1CC(O)=C(C(=O)Nc2ccc(OCCCCCCCC(=O)O)cc2)C1=O
300	O=C(O)CCCCCCCOc1ccc(NC(=O)c2c(O)c3ccc(-c4cc5ccccc5s4)cc3[nH]c2=O)cc1
5000	O=C(O)CCCCCCCOc1ccc(NC(=O)C2=C(O)CN(c3ccc(Cl)cc3)C2=O)cc1
13000	O=C(O)CCCCCCCOc1ccc(NC(=O)C2=C(O)CN(c3ccc(Cl)c(Cl)c3)C2=O)cc1
7000	O=C(O)CCCCCCCOc1ccc(NC(=O)c2c(O)c3c(I)cccc3[nH]c2=O)cc1
21000	O=C(O)CCCCCCCOc1ccc(NC(=O)C2=C(O)CN(c3ccccc3)C2=O)cc1
> 30000	Nc1ccc2c(O)c(C(=O)Nc3ccc(OCCCCCCCC(=O)O)cc3)c(O)nc2c1
7900	O=C(O)CCCCCCCOc1ccc(NC(=O)c2c(O)c3c([N+](=O)[O-])cccc3[nH]c2=O)cc1
1800	CCCCCc1ccc2[nH]c(=O)c(C(=O)Nc3ccc(OCCCCCCCC(=O)O)cc3)c(O)c2c1
1030	O=C(O)CCCCCCCOc1ccc(NC(=O)c2c(O)c3ccc(C(F)(F)F)cc3[nH]c2=O)cc1
4900	O=C(O)CCCCCCCOc1ccc(NC(=O)c2c(O)c3cc(F)ccc3[nH]c2=O)cc1
1650	COc1cc2[nH]c(=O)c(C(=O)Nc3ccc(OCCCCCCCC(=O)O)cc3)c(O)c2cc1OC
17900	COC(=O)c1cccc(N2CC(O)=C(C(=O)Nc3ccc(OCCCCCCCC(=O)O)cc3)C2=O)c1
690	O=C(Nc1ccc(OCCCCCCCn2cnnn2)cc1)C1=C(O)CN(c2ccc(Cl)cc2)C1=O
> 50000	CC(=O)Nc1ccc(N2CC(O)=C(C(=O)Nc3ccc(OCCCCCCCC(=O)O)cc3)C2=O)cc1
2350	CC(C)c1ccc(N2CC(O)=C(C(=O)Nc3ccc(OCCCCCCCC(=O)O)cc3)C2=O)cc1
> 50000	O=C(O)CCCCCCCOc1ccc(NC(=O)C2=C(O)CN(c3cccc4ccccc34)C2=O)cc1
600	O=C(O)CCCCCCCOc1ccc(NC(=O)c2c(O)c3ccc(-c4ccc5ccccc5c4)cc3[nH]c2=O)cc1
> 50000	O=C(O)CCCCCCCOc1ccc(NC(=O)C2=C(O)CN(c3ccc(N4CCOCC4)cc3)C2=O)cc1

Target: T1, Plasminogen activator inhibitor 1
Test: Inhibitory activity against human plasminogen activator inhibitor-1 (PAI-1) evaluated by complex assay.

Structure (SMILES)	IC50 [nM]
O=C(Nc1ccc(OCCCCCCCn2cnnn2)cc1)c1c(O)c2cc(-c3cc4ccccc4s3)ccc2[nH]c1=O	290
O=C(O)CCCCCCCOc1ccc(/C=c2/[nH]c(=O)/c(=C/c3ccc(NC(=O)c4cccs4)cc3)[nH]c2=O)cc1	510
Cc1ccc(N2CC(O)=C(C(=O)Nc3ccc(OCCCCCCCn4cnnn4)cc3)C2=O)cc1	830
O=C(O)CCCCCCCOc1ccc(NC(=O)c2c(O)nc3ccc(-c4csc5ccccc45)cc3c2O)cc1	940
O=C(Nc1ccc(OCCCCCCCn2cnnn2)cc1)C1=C(O)CN(c2ccc(Cl)cc2)C1=O	300
